Source: patent US6080780A, “Use of nitroflavonoids for the treatment of anxiety” (University of Strathclyde, priority 1995, dated 2000)
Where two headings read alike, the source gives them in different places.

Legend:
mice [1] = test: Elevated plus-maze test in mice (Section 1, incl. Table 1); format: in vivo, male Swiss mice; details: mice, i.p.
Description: Performance of mice on the elevated plus-maze test was used to measure anxiolytic actions in rodents, following i.p. administration of vehicle or compound (II).
The animals used in the pharmacological test were male Swiss mice from breeding stock, weighing 28-35 g. They were placed n groups of ten with free access to water and food, and maintained on 12 h/12 h day/night cycle. In all the tests the mice were i.p. injected with VEH or a solution of the drug, 15 minutes before the assay.
The elevated plus-maze set-up consisted of a maze of two open arms, 25×5 cm, crossed by two closed arms of the same dimensions, with free access to all arms from the crossing point. The closed arms had walls 35 cm high all around. The maze was suspended 50 cm from the room floor. Mice were placed on the central part of the cross facing an open arm. The number of entries and the time spent going into open and closed arms were counted during 5 minutes. […] The total exploratory activity (number of entries in both arms) was also determined.

[2] = target: central benzodiazepine receptor; test: [3H]-FNZ binding to crude synaptosomal membranes from rat CNS regions; parameters: species or system rat (Wistar); details: read-out: Ki, [3H]-FNZ binding
Description: (§1) Adult male Wistar rats weighing 250 g were used for biochemical experiments. Adult male Swiss male weighing 25-30 g were used for pharmacological assays except for inhibitory avoidance and tail flick tests were done in rats. Animals were housed in a controlled environment, with free access to food and water and maintained on a 12 h/12 h day/night cycle.
Displacement curves were performed using [^3 ]-FNZ or [^3 H]-zolpidem ([^3 H]-ZOLP) as radioligands in washed crude synaptosomal membranes from rat cerebral cortex, cerebellum, hippocampus, striatum or spinal cord. Membrane preparations were carried out according to Medina et al. (1990). Briefly, brains were rapidly dissected out on ice and the different structures were homogenized in 10 volumes of 0.32 M sucrose and centrifuged at 900×g for 10 min. The resulting supernatant was centrifuged at 100,000×g for 30 min and the pellet washed twice in 25 mM Tris HCl buffer pH 7.4 at 100,000×g for 30 min, and stored at -20° C. until used.
For [^3 H]-FNZ (84 Ci/mmol, NEN) displacement curves, different concentrations of DNF (0.3 nM to 1 μM) were added to 0.3 mg membrane protein suspended in 1 ml of 25 mM Tris HCl buffer in presence of 0.6 nM of the radioligand. Protein determination was carried out by using the method of Lowry et al. (1951). Nonspecific binding (<5%) was determined in parallel incubations with 10 μM FNZ (Hoffmann-La Roche). The incubation was carried out at 4° C. for 2 h. The assays were determined by filtration under vacuum through Whatman GF/A glass fiber filters, and two washes with 3 ml each of incubation medium. Filters were dried and counted after the addition of 5 ml 2,5-diphenyl-oxazole (PPO)-xylene as scintillation fluid.

[3] = target: central benzodiazepine receptors (BDZ-Rs); test: 3H-FNZ binding to rat brain synaptosomal membranes (Section 3); details: rat cerebral cortex; read-out: Ki, 3H-FNZ binding
Description: In brief, for each assay, triplicate samples of the membranes, containing 0.2 to 0.4 mg protein were suspended in a final volume of 1 mL of 0.25 mM Tris--HCl buffer, pH 7.3. The incubation was carried out at 4° C. for 60 min with 0.6 nM ^3 H--FNZ. to study the binding saturation, a range of 0.3 to 10 nM ^3 H--FNZ was used. […] The assays were terminated by filtration under vacuum through Whatman GF/A glass-fiber filters, and three washes with 3 mL each of incubation medium. Filters were dried and counted after the addition of 5 mL of 2,5-diphenyloxazole/xylene as scintillation fluid.
The binding of ^3 H--FNZ was carried out as for (i) above.

[4] = tested on: benzodiazepine (BDZ-R) receptor; test: 3H-Flunitrazepam binding to extensively washed bovine cerebral cortical membranes
Description: Non-specific nitration of the flavone nucleus yielded the two nitrated flavone (II) and (IIa). […] Briefly, ^3 H-FNZ binding was carried out as described by Levy de Stein, M., Medina, J. H., De Robertis E., Mol. Brain Res. 1985, 5, 9-15. In brief, for each assay, triplicate samples of the membranes, containing 0.2 to 0.4 mg protein were suspended in a final volume of 1 mL of 0.25 mM Tris-HCl buffer, pH 7.3. The incubation was carried out at 4° C. for 60 minutes with 0.6 nM ^3 -FNZ. To study the binding saturation, a range of 0.3 to 10 nM ^3 H-FNZ was used. Non-specific binding was determined in parallel incubations in the presence of 3 μM FNZ, and represented 5-15% of total. The assays were terminated by filtration under vacuum though Whatman GF/A glass-fiber filters, and three washes with 3 mL each of incubation medium. Filters were dried and counted after the addition of 5 mL of 2,5-diphenyloxazole/xylene as scintillation fluid. Bovine cerebral cortical membranes were treated substantially following the method of Medina, J. H., De Robertis, E. J., J. Neurochem. 1985, 44, 1340-1345.

GABAλ receptors = test: [3H]-muscimol binding; details: 20 μM; data not shown
Description: Additional binding studies were performed as described elsewhere: [^3 ]-prazosin binding for α1 adrenergic receptors (Medina et al., 1984), [^3 H]-dihidroalprenolol binding for β adrenergic receptors (Medina et al. 1984), [^3 H]-quinuclinidyl benzylate binding for muscarinic cholinergic receptors (Jerusalinksy et al., 1983), [^3 H]-muscimol binding for GABAλ receptors (Medina et al., 1983) and [^3 H]-8-Hydroxydipropylaminotetralin ([^3 H]--OH--DPAT) binding for serotonin (5-HTlλ) receptors (Nenonene et al., 1984).

mice [5] = test: Holeboard test in mice; format: in vivo, male Swiss mice; details: for number of head dips and time spent head-dipping: mice, i.p.
Description: as §1
(§2) The test was performed according to Viola et al. (1994) and Wolfman et al. (1994). The number of head dips and the time spent head dipping were counted during 5 min.

Holeboard test in mice = format: in vivo, male Swiss mice; details: mouse, in vivo, ip; 10 mg/kg vs anxiolytic dose; read-out: dose decreasing holeboard parameters relative to anxiolytic dose
Description: as §1, §2

[6] = tested on: muscarinic cholinergic receptors; format: binding; details: 20 μM; data not shown

With `O=c1cc(-c2cccc([N+](=O)[O-])c2)oc2ccc([N+](=O)[O-])cc12` [Compound (II), 6,3'-dinitroflavone] the “percentage of the time spent in the open arms” value (mice [1]; 3 and 30 μg/kg) was “enhanced the percentage of the time spent in the open arms”, the total arm entries (mice [1]; doses 0 to 30 μg/kg) was “without affecting the total arm entries” and the “percentage of entries in the open arms” value (mice [1]; doses 0 to 30 μg/kg, 15 min before test) was “increased the percentage of entries in the open arms”. The Ki ([2]; rat cerebral cortex) was 25.9 ± 3.1 nM, the Ki ([2]; rat hippocampus) was 36.1 ± 5 nM and the Ki ([2]; rat spinal cord) was 48.1 ± 5.5 nM. The Ki ([2]; rat striatum and spinal cord (range over both)) was 44 to 48 nM, the Ki ([2]; rat striatum) was 44.1 ± 4.9 nM and the Ki [3] was 20 nM. The “Scatchard analysis of saturation curves (type of interaction)” value ([4]; bovine membranes, compound (II) 20 nM (FIG. 1)) was “competitive interaction showing a decline in the apparent affinity without changes in the maximal number of sites (Bmax)”, the Ki ([4]; read-out: Ki, inhibition of 3H-FNZ binding, bovine cerebral cortical membranes, 0.6 nM 3H-FNZ, 4° C., 60 min, n=7) was 12 ± 1.7 nM and the “displacement of [3H]-muscimol binding” value (GABAλ receptors) was “did not displace”. The “number of head dips and time spent head-dipping” value (mice [5]; 10 mg/kg, p<0.01) was “decreased both parameters”, the “number of head dips and time spent head-dipping” value (mice [5]; up to 3 mg/kg) was “did not change the number of head dips and the time spent head-dipping” and the “dose to produce similar sedative effects in comparison to DZ” value (mice [5]; ratio to diazepam, higher dose) was 10 fold. For the same compound, the selectivity ratio (Holeboard test in mice) was 300 and the “displacement of [3H]-quinuclidinyl benzilate binding” value [6] was “did not displace”.
